Assay results as given in patent US7049138B2, “Epitope-tagged beta-amyloid precursor protein and DNA encoding the same” (Bristol-Myers Squibb Company, priority 1999, dated 2006).

Test system: HA 11 A-beta (1-40) accumulation in HEK 293/HA 11 beta-APP 695 cells
Assay: Accumulation of HA 11 A-beta (1-40) in HEK 293/HA 11 beta-APP 695 conditioned medium, position 40-specific ELISA
Type: cell-based, human
Conditions: 96-well, serum-free medium with 0.2% BSA, 16 hours, dose-response, versus DMSO vehicle
Procedure: HEK 293/HA 11 beta-APP 695 cells were plated at confluence in 96-well plates and the indicated dose-response of either MDL 28170 (panel A), or Brefeldin A (panel B) was added for 16 hours. The accumulation of HA 11 A-beta (1-40) (position 40-specific antibody; QCB) was determined as in FIG. 5. Results are expressed as percentage inhibition of HA 11 A-beta (1-40) accumulation in comparison to wells incubated with vehicle (dimethyl sulfoxide, DMSO) alone.
Panel A: Immulon 2 microtiter wells were coated with mAB anti-HA 11 (5 μg/mL in PBS, 4° C., overnight), washed with PBS and blocked with 5% BSA in PBS. […] The change of absorbance of duplicate wells was determined at […] and results corrected for binding of antibodies to wells in the absence of peptide. […]
HEK 293/HA 11 beta-APP 695 cells were plated in 96-well tissue culture dishes in serum-free medium containing 0.2% BSA (1×10^6 cells/cm^2). The conditioned medium was harvested at the indicated times and analyzed for the presence of HA 11 A-beta position 40, as in example 4. HA 11 A-beta polypeptides ending at position 42 were detected in a similar ELISA system. […] Bound HA 11 A-beta 42 was detected with biotin-labeled mAB 108 (specific for the neo-epitope generated upon cleavage of beta-APP by […]), followed by HRP-labeled streptavidin and TMB substrate. […]

Compound: C[C@H]1CCC/C=C/[C@@H]2C[C@H](O)C[C@H]2[C@H](O)/C=C/C(=O)O1 [brefeldin A, Brefeldin A]
- HA 11 A-beta accumulation in conditioned medium: decrease in the HA 11 A-beta accumulation

Compound: MDL 28170
- HA 11 A-beta accumulation in conditioned medium: decrease in the HA 11 A-beta accumulation
